A word on the IC50: it is the concentration at which inhibition is half-maximal.

Molecules are shown by their SMILES.

Data set [1] is described as follows: stability of the isolated compound at nucleophiles such as methanol. The data set is classed as physicochemical. Particulars: degrades into starting material 75-R. How it is done:
Previously prepared (E)-1-(3-(1-(5,7-difluoroquinolin-6-yl)ethyl)-[1,2,4]triazolo[4,3-b]pyridazin-6-yl)ethanone oxime (75-R, 100 mg, 0.271 mmol) in anhydrous THF (8 mL) was added diphosgene (0.1 mL, 0.829 mmol) dropwise at 0° C., and the reaction mixture was heated at 50° C. for 4 hr. Oil bath was removed, and the reaction mixture was cooled in an ice-water bath. An ammonia solution (0.5 N in dioxane, 8.0 mL, 4.0 mmol) was added dropwise. The temperature was allowed to rise to rt naturally, and the reaction mixture was stirred at rt overnight. Solvent was evaporated, and the residue was purified by column chromatography (8% methanol in ethyl acetate as eluent) to afford 64 mg (45.8% yield) of title compound as white solid, which was unstable at nucleophiles such as methanol, and was pro to degrade into starting material 75-R. ^1H-NMR (400 MHz, DMSO-d6) δ ppm 8.96 (d, 1H), 8.44 (d, 1H), 8.34 (d, 1H), 8.10 (d, 1H), 7.56-7.74 (m, 2H), 7.34 (s br, 2H), 5.27 (q, 1H), 2.02 (d, 3H), 2.03 (s, 3H). LCMS (method B): [MH]^+=412, tR=2.25 min.

Data set [2] addresses c-MET receptor tyrosine kinase, GST-c-MET(969-1390) (Homo sapiens (Human), UniProt P08581). In words: EPK c-MET profiling assay (LanthaScreen TR-FRET kinase assay). The data set is classed as biochemical. Conditions: recombinant GST-c-MET(969-1390), 2 μM ATP, 60 minutes at room temperature; read-out: c-Met biochem (IC50 nM). For orientation: Time-resolved FRET reads energy transfer from a long-lived donor to a nearby acceptor.
Protocol: A number of compounds of the present invention were assayed in an antibody based kinase phosphorylation assay as follows.
EPK c-MET Profiling Assay:
The EPK kinase assay for c-MET receptor tyrosine kinase was developed, using the purified recombinant GST-fusion protein, containing the cytoplasmic domain of the enzyme.
The kinase assay is based on the LanthaScreen™ technology. LanthaScreen™ is the detection of Time-Resolved Fluorescence Resonance Energy Transfer (TR-FRET) using lanthanide chelates to measure interactions between various binding partners. In a TR-FRET kinase assay, a long-lifetime lanthanide donor species is conjugated to an antibody that specifically binds to a phosphorylated product of a kinase reaction that is labeled with a suitable acceptor fluorophore. This antibody-mediated interaction brings the lanthanide donor and the acceptor into proximity such that resonance energy transfer can take place, resulting in a detectable increase in the FRET signal.
The kinase reactions were performed in 384 well microtiter plates in a total reaction volume of 10.05 μL. […]
Subsequently 5 μL of detection mix (50 mM Tris/HCl, 2 mM DTT, 0.05% Tween20, 20 μM sodium orthovanadate, 1% BSA, 1 nM Tb-PY20 antibody) were added to the stopped reactions. After 45 minutes incubation in dark at room temperature, the plates were measured in a Perkinelmer Envision fluorescence reader.

Chain of c-MET receptor tyrosine kinase, GST-c-MET(969-1390) (P08581 969-1390): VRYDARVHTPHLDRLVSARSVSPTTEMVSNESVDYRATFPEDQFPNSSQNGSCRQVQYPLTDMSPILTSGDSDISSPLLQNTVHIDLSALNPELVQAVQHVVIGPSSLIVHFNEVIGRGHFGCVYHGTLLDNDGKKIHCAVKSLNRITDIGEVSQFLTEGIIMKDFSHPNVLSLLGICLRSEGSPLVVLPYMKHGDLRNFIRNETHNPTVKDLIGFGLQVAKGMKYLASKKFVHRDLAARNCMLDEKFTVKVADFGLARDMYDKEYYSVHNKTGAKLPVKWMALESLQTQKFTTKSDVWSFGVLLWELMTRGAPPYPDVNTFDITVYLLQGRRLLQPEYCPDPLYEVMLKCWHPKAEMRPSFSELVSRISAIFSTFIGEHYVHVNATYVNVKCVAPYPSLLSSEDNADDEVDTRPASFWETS

`C/C(=N\OC(N)=O)c1ccc2nnc([C@H](C)c3c(F)cc4ncccc4c3F)n2n1` [Example 77-R, (R,E)-1-(3-(1-(5,7-difluoroquinolin-6-yl)ethyl)-[1,2,4]triazolo[4,3-b]pyridazin-6-yl)ethanone O-carbamoyl oxime]: the “stability at nucleophiles such as methanol” value in data set [1] is listed as “unstable”. In the case of `C/C(=N\OCCO)c1ccc2nnc(C(F)(F)c3ccc4ncccc4c3)n2n1` [Example 50, (E)-1-(3-(Difluoro(quinolin-6-yl)methyl)-[1,2,4]triazolo[4,3-b]pyridazin-6-yl)ethanone O-2-hydroxyethyl oxime], the concentration for half-maximal inhibition (IC50) in data set [2] is 1.5 nM.

Source of the values: patent US8507676B2, “Heterocyclic oxime compounds” (Novartis AG, priority 2009, dated 2013).
